{"source": "patent US20070010446A1", "about": "“METHODS FOR TREATING INFLAMMATION USING THYROID STIMULATING HORMONE” (ZymoGenetics, Inc., priority 2003, published 2007)", "key": {"[1]": {"test_system": "C57BL/6 mice", "experiment": "Delayed Type Hypersensitivity (DTH), OVA ear challenge", "assay_type": "in vivo", "conditions": "Expt 3 (n = 7), adrenalectomized (ADX) mice; treatment i.p. at challenge (d 7); Dex […], TSH 2.0 mg/kg"}, "[2]": {"test_system": "thymus", "conditions": "mouse, in vivo"}, "[3]": {"test_system": "C57BL/6 mice", "experiment": "LPS-induced mild endotoxemia mouse model, serum cytokines by ELISA", "assay_type": "in vivo", "conditions": "treatment i.p. 1 hour prior, Dex […], TSH 2.0 mg/kg, Thyroxine 0.05 mg/kg; for TNFα (1 hr) +/− S.E.: serum 1 hour after 25 ug LPS i.p., PBS group 6990.8; for IL-6 (4 hr) +/− S.E.: serum 4 hours after 25 ug LPS i.p., PBS group 45.6", "description": "The LPS-induced mild endotoxemia model is an in vivo model designed to mimic acute endotoxemia/sepsis by challenging mice with a low, non-lethal dose of bacterial endotoxin (lipopolysaccharide, LPS). Serum is collected at various timepoints (1-72 hours) after intraperitoneal LPS injection and analyzed for altered expression of a wide variety of pro- and anti-inflammatory cytokines and acute phase proteins that mediate the inflammatory response. The model provides a means to assess the potential anti-inflammatory effects of therapeutic candidates during a robust inflammatory response.\nIn this model, an initial experiment is run to determine the production of proinflammatory cytokines in response to an injection of LPS. For example, six-month old Balb/c (Charles River Laboratories, Wilmington, Mass.) female mice are injected with 25 μg LPS (Sigma) in sterile PBS intraperitoneally (i.p.). Serum samples are collected at 0, 1, 4, 8, 16, 24, 48 and 72 hours later, and are assayed for serum levels of inflammatory mediators, such as IL-1β, IL-6, TNFα, and IL-10. Commercially available ELISA kits (Biosource International, Camarillo, Calif.) can be used to deterime the serum levels. In this assay TNFα levels and IL-1β levels can be measured at 1 hour post-LPS injection, and IL-6, IL-10 and IL-10 can be measured at 4 hours post injection. From these inflammatory mediators, one or more is chosen as a representative biological marker(s) for the LPS model of mild endotoxemia.\nNext, C57BL/6 mice (Charles River Laboratories; 5 mice/group) are treated i.p. with PBS, or the test compound in PBS 1 hour prior to LPS challenge. The mice are then challenged with 25 ug of LPS i.p. and are bled at 1 hour and 4 hours after LPS injection. The level of the representative biological marker(s) is analyzed by ELISA.\nThyroxine (0.05 mg/kg) and Dexamethasone (0.015 mg/kg) were run as negative and positive controls, respectively. […] This model can be optimized for dosage and choice of biological markers."}}}
{"compound": "C[C@@H]1C[C@H]2[C@@H]3CCC4=CC(=O)C=C[C@]4(C)[C@@]3(F)[C@@H](O)C[C@]2(C)[C@@]1(O)C(=O)CO", "note": "[Dex, Dexamethasone]", "values": [{"measurement": "CHANGE IN EAR THICKNESS, LEFT EAR (PBS)", "setting": "[1]", "value": "0.07 +/− 0.61 ×10^−3 inch"}, {"measurement": "CHANGE IN EAR THICKNESS, RIGHT EAR (OVA)", "setting": "[1]", "value": "3.71 +/− 0.64 ×10^−3 inch"}, {"measurement": "thymic atrophy (in words)", "setting": "[2]", "value": "obvious thymic atrophy"}, {"measurement": "TNFα (1 hr) +/− S.E.", "setting": "[3]", "value": "3798.4 ± 415.7", "unit": "pg/mL"}, {"measurement": "IL-6 (4 hr) +/− S.E.", "setting": "[3]", "value": "35.2 ± 2.8", "unit": "ng/mL"}]}
{"compound": "N[C@@H](Cc1cc(I)c(Oc2cc(I)c(O)c(I)c2)c(I)c1)C(=O)O", "note": "[Thyroxine]", "values": [{"measurement": "TNFα (1 hr) +/− S.E.", "setting": "[3]", "value": "4289.5 ± 642.3", "unit": "pg/mL"}, {"measurement": "IL-6 (4 hr) +/− S.E.", "setting": "[3]", "value": "37.1 ± 0.9", "unit": "ng/mL"}]}
